Measurements: ChEMBL document CHEMBL5634151, “Anti-adipogenic action of a novel oxazole derivative through activation of AMPK pathway” (Eur J Med Chem, 2023)
Activity calls are given as the source filed them. No cut-off for these calls is given here.

Assays:
3T3-L1 [1] = assay: Anti-adipogenic activity in MDI-cocktail differentiated mouse 3T3-L1 pre-adipocyte cells assessed as inhibition of adipogenesis at 20 uM by Oil Red O staining based microscopic analysis relative to control; assay type: functional
3T3-L1 [2] = assay: Cytotoxicity against mouse 3T3-L1 pre-adipocyte cells assessed as reduction in cell viability upto 50 uM incubated for 48 hrs by MTT assay; assay type: toxicity, cell-based; settings: 3t3-l1, 48 h
3T3-L1 [3] = assay: Anti-adipogenic activity in MDI-cocktail differentiated mouse 3T3-L1 pre-adipocyte cells assessed as inhibition of adipogenesis by Oil Red O staining based microscopic analysis; assay type: functional, cell-based
3T3-L1 [4] = assay: Inhibition of MDI-cocktail induced adipogenic differentiation in mouse 3T3-L1 pre-adipocyte cells assessed as reduction in PPARgamma protein expression at 0.5 to 5 uM by Western blot analysis; assay type: functional, cell-based; settings: dose 0.5-5 µM
3T3-L1 [5] = assay: Inhibition of MDI-cocktail induced adipogenic differentiation in mouse 3T3-L1 pre-adipocyte cells assessed as reduction in C/EBPalpha protein expression at 0.5 to 5 uM by Western blot analysis; assay type: functional, cell-based; settings: dose 0.5-5 µM
3T3-L1 [6] = assay: Inhibition of MDI-cocktail induced adipogenic differentiation in mouse 3T3-L1 pre-adipocyte cells assessed as increase in AMPK phosphorylation at Thr172 residue by Western blot analysis; assay type: functional, cell-based; settings: dose 0.5-5 µM
3T3-L1 [7] = assay: Inhibition of MDI-cocktail induced adipogenic differentiation in mouse 3T3-L1 pre-adipocyte cells assessed as reduction in CEBPalpha gene expression at 5 uM by qRT-PCR analysis; assay type: functional, cell-based
3T3-L1 [8] = assay: Inhibition of MDI-cocktail induced adipogenic differentiation in mouse 3T3-L1 pre-adipocyte cells assessed as reduction in FASN gene expression at 5 uM by qRT-PCR analysis; assay type: functional, cell-based
3T3-L1 [9] = assay: Anti-adipogenic activity in MDI-cocktail differentiated mouse 3T3-L1 pre-adipocyte cells assessed as reduction in adipogenic differentiation at 5 uM measured after 0 to 3 days by Oil Red O staining based microscopic analysis; assay type: functional, cell-based; settings: time 0-3 day
3T3-L1 [10] = assay: Anti-adipogenic activity in MDI-cocktail differentiated mouse 3T3-L1 pre-adipocyte cells assessed as reduction in adipogenic differentiation at 5 uM measured after 3 to 5 days by Oil Red O staining based microscopic analysis; assay type: functional, cell-based; settings: time 3-5 day
3T3-L1 [11] = assay: Anti-adipogenic activity in MDI-cocktail differentiated mouse 3T3-L1 pre-adipocyte cells assessed as reduction in adipogenic differentiation at 5 uM measured after 3 to 7 days by Oil Red O staining based microscopic analysis; assay type: functional, cell-based; settings: time 3-7 day
3T3-L1 [12] = assay: Anti-adipogenic activity in MDI-cocktail differentiated mouse 3T3-L1 pre-adipocyte cells assessed as reduction in adipogenic differentiation at 5 uM measured after 5 to 7 days by Oil Red O staining based microscopic analysis; assay type: functional, cell-based; settings: time 5-7 day
C3H 10T1/2 [13] = assay: Anti-adipogenic activity in MDI-cocktail differentiated mouse C3H 10T1/2 cells assessed as reduction in adipogenic differentiation at 5 uM measured after 0 to 3 days by Oil Red O staining based microscopic analysis; assay type: functional, cell-based; settings: time 0-3 day
C3H 10T1/2 [14] = assay: Anti-adipogenic activity in MDI-cocktail differentiated mouse C3H 10T1/2 cells assessed as reduction in adipogenic differentiation at 5 uM measured after 0 to 5 days by Oil Red O staining based microscopic analysis; assay type: functional, cell-based; settings: time 0-5 day
C3H 10T1/2 [15] = assay: Anti-adipogenic activity in MDI-cocktail differentiated mouse C3H 10T1/2 cells assessed as reduction in adipogenic differentiation at 5 uM measured after 3 to 7 days by Oil Red O staining based microscopic analysis; assay type: functional, cell-based; settings: time 3-7 day
C3H 10T1/2 [16] = assay: Anti-adipogenic activity in MDI-cocktail differentiated mouse C3H 10T1/2 cells assessed as reduction in adipogenic differentiation at 5 uM measured after 5 to 7 days by Oil Red O staining based microscopic analysis; assay type: functional, cell-based; settings: time 5-7 day
3T3-L1 [17] = assay: Anti-adipogenic activity in MDI-cocktail differentiated mouse 3T3-L1 pre-adipocyte cells assessed as reduction in C/EBPalpha protein expression at 5 uM measured for 3 to 7 days by immunoblotting analysis; assay type: functional, cell-based; settings: time 3-7 day
3T3-L1 [18] = assay: Anti-adipogenic activity in MDI-cocktail differentiated mouse 3T3-L1 pre-adipocyte cells assessed as reduction in FASN protein expression at 5 uM measured for 3 to 7 days by immunoblotting analysis; assay type: functional, cell-based; settings: time 3-7 day
3T3-L1 [19] = assay: Anti-adipogenic activity in MDI-cocktail differentiated mouse 3T3-L1 pre-adipocyte cells assessed as increase in AMPK phosphorylation at Thr172 residue at 5 uM measured for 3 to 7 days by immunoblotting analysis; assay type: functional, cell-based; settings: time 3-7 day
3T3-L1 [20] = assay: Induction of cell cycle arrest in MDI-cocktail differentiated mouse 3T3-L1 pre-adipocyte cells assessed as reduction in CDK2 protein expression at 5 uM measured after 16 to 24 hrs by immunoblotting analysis; assay type: functional, cell-based; settings: time 16-24 hrs
3T3-L1 [21] = assay: Inhibition of MDI-cocktail induced AKT phosphorylation at Ser473 residue in mouse 3T3-L1 pre-adipocyte cells at 5 uM by immunoblotting analysis; assay type: cell-based
3T3-L1 [22] = assay: Induction of mitochondrial respiration in MDI-cocktail differentiated mouse 3T3-L1 pre-adipocyte cells assessed as increase in oxygen consumption rate at 5 uM incubated for 72 hrs in presence of FCCP by Seahorse XFp flux analyzer; assay type: functional, cell-based
3T3-L1 [23] = assay: Induction of mitochondrial respiration in MDI-cocktail differentiated mouse 3T3-L1 pre-adipocyte cells assessed as increase in oxygen consumption rate at 5 uM incubated for 72 hrs in presence of rotenone/antimycin A mixture by Seahorse XFp flux analyzer; assay type: functional, cell-based
3T3-L1 [24] = assay: Induction of mitochondrial membrane potential in mouse 3T3-L1 mature adipocytes assessed as increase in TMRE fluorescence at 1 to 5 uM incubated for 24 hrs by TMRE staining based fluorescence microscopic analysis; assay type: functional, cell-based; settings: dose 1-5 µM
Syrian golden hamster [25] = assay: Anti-obesity activity in high-fat diet induced Syrian golden hamster model assessed as reduction in weight gain at 50 mg/kg, po administered for 7 days and measured daily; assay type: functional, organism-based; settings: Mesocricetus auratus, time 7.0 day
[26] = Toxicity in high-fat diet induced Syrian golden hamster obese model assessed as effect on food intake at 25 to 50 mg/kg, po administered for 7 days and measured daily; assay type: organism-based, Mesocricetus auratus; settings: in vivo, 168 h, dose 25-50 mg/kg, time 7 day
Syrian golden hamster [27] = assay: Anti-obesity activity in high-fat diet induced Syrian golden hamster model assessed as rescue of normal liver weight at 25 to 50 mg/kg, po administered for 7 days; assay type: functional, organism-based; settings: Mesocricetus auratus, dose 25-50 mg/kg, time 7.0 day
Syrian golden hamster [28] = assay: Anti-dyslipidaemic activity in high-fat diet induced Syrian golden hamster model assessed as assessed as reduction in serum LDL-cholesterol level at 25 to 50 mg/kg, po administered for 7 days; assay type: functional, organism-based; settings: Mesocricetus auratus, dose 25-50 mg/kg, time 7.0 day
Syrian golden hamster [29] = assay: Hepatoprotective activity in high-fat diet induced Syrian golden hamster model assessed as reduction in serum AST level at 25 to 50 mg/kg, po administered for 7 days; assay type: functional, organism-based; settings: Mesocricetus auratus, dose 25-50 mg/kg, time 7.0 day
Mesocricetus auratus = assay: In vivo activation of AMPK in high-fat diet induced Syrian golden hamster model assessed as increase in AMPK phosphorylation at Th172 residue in eWAT at 50 mg/kg, po administered for 7 days by Western blot analysis; assay type: functional, organism-based; settings: time 7.0 day
3T3-L1 [30] = assay: Cytotoxicity against mouse 3T3-L1 pre-adipocyte cells assessed as reduction in cell viability >20 uM incubated for 48 hrs by MTT assay; assay type: toxicity, cell-based; settings: 3t3-l1, 48 h

Q: With `Cc1ccc(-c2cnc(-c3ccc[n+](Cc4cccc(C)c4)c3)o2)cc1.[Br-]` as the compound, how does the inhibition at 20 µM (3T3-L1 [1]) read?
A: Its inhibition at 20 µM is over 70%.

Q: And the Activity (3T3-L1 [2])?
A: Its Activity is “Non-Toxic”.

Q: And the IC50 (3T3-L1 [3]; read-out: IC50)?
A: The IC50 was 390 nM.

Q: And the IC50 (3T3-L1 [3]; read-out: pIC50 (converted))?
A: The IC50 was 390 nM.

Q: What about the inhibition (3T3-L1 [4]) of the same compound?
A: The inhibition was “Active”.

Q: What about the inhibition (3T3-L1 [5]) of the same compound?
A: The inhibition was “Active”.

Q: What about the inhibition (3T3-L1 [6]) of the same compound?
A: Its inhibition is “Dose-Dependent Effect”.

Q: And the inhibition (3T3-L1 [7])?
A: Its inhibition is “Active”.

Q: What about the inhibition (3T3-L1 [8]) of the same compound?
A: The inhibition was “Active”.

Q: And the Activity (3T3-L1 [9])?
A: Its Activity is “Active”.

Q: What about the Activity (3T3-L1 [10]) of the same compound?
A: Its Activity is “Active”.

Q: And the Activity (3T3-L1 [11])?
A: The Activity was “Active”.

Q: What about the Activity (3T3-L1 [12]) of the same compound?
A: The Activity was “Active”.

Q: And the Activity (C3H 10T1/2 [13])?
A: The Activity was “Active”.

Q: What about the Activity (C3H 10T1/2 [14]) of the same compound?
A: Its Activity is “Active”.

Q: What about the Activity (C3H 10T1/2 [15]) of the same compound?
A: The Activity was “Active”.

Q: What about the Activity (C3H 10T1/2 [16]) of the same compound?
A: The Activity was “Active”.

Q: And the Activity (3T3-L1 [17])?
A: The Activity was “Active”.

Q: And the Activity (3T3-L1 [18])?
A: The Activity was “Active”.

Q: And the Activity (3T3-L1 [19])?
A: The Activity was “Active”.

Q: And the Activity (3T3-L1 [20])?
A: Its Activity is “Active”.

Q: And the inhibition (3T3-L1 [21])?
A: Its inhibition is “Active”.

Q: And the Activity (3T3-L1 [22])?
A: Its Activity is “Active”.

Q: What about the Activity (3T3-L1 [23]) of the same compound?
A: The Activity was “Active”.

Q: And the Activity (3T3-L1 [24])?
A: The Activity was “Active”.

Q: What about the Activity (Syrian golden hamster [25]) of the same compound?
A: Its Activity is “Active”.

Q: And the Activity [26]?
A: Its Activity is “Non-Toxic”.

Q: And the Activity (Syrian golden hamster [27])?
A: Its Activity is “inactive”.

Q: And the Activity (Syrian golden hamster [28])?
A: Its Activity is “Active”.

Q: And the Activity (Syrian golden hamster [29])?
A: Its Activity is “Active”.

Q: What about the Activity (Mesocricetus auratus) of the same compound?
A: Its Activity is “Active”.

Q: And the Activity (3T3-L1 [30])?
A: Its Activity is “Non-Toxic”.
